Where “and” joins values, the source holds several entries; their conditions need not be identical. Identical values can stand only once. Like-named read-outs stand apart in the source and are kept apart here.
How the values were obtained:
[1] = test system: CT26 tumor; settings: for ORR (%): 3 days after end of treatment; for Relapse (recurrence): tumor growth at least 5 fold in mice with CR or PR; for CR / PD / PR: number of mice
Description: Anti-Colorectal Cancer Activity in Animal Models. Animal study was approved and overseen by The Taipei Medical University Institutional Animal Care and Use Committee (TMU IACUC, NO: LAC-2020-0103, LAC-2019-0644). Six- to eight-week-old male Balb/c mice (National Laboratory Animal Center, Taiwan) were used for all animal experiments. CT26 cell line was purchased from ATCC. CT26 tumor cell lines were grown in RPMI-1640 supplemented with 10% (vol/vol) FBS at 37° C., 5% CO2. Tumors were established by s.c. injection of 1×10^6 CT26 cells with Matrigel (354248, Corning®) into the left flank of mice, and growth determined by measuring two perpendicular diameters. Tumors were allowed to grow for 8-12 days (tumor size about 110-250 mm^3) before randomization and treatment. Animals were euthanized when tumors reached more than 3000 mm^3 in volume. An anti-IgG antibody (BE0089, Lot #716719J3, Bio X Cell), anti-PD-1 antibody (BE0146, Lot #717918D1, Lot #735019J3, Lot #780120J3, Lot #73501901, Bio X Cell), anti-PD-L1 antibody (BE0101, Lot #720619F1, Bio X Cell) and anti-CTLA-4 antibody (BE0164, Lot #702418A2B, Bio X Cell) were administered i.p. at 2.5 mg/kg twice a week for three weeks. All antibodies were diluted to appropriate concentrations in 100 μL of sterile PBS (pH 7.4, Invitrogen Life Technologies). Axitinib (HY-10065, 30 mg/kg, po daily, MedChemExpress USA), Lenvatinib (HY-10981, 10 mg/kg, po daily, MedChemExpress USA), Olaparib (HY-10162, 50 mg/kg, po daily, MedChemExpress USA), Ibrutinib (HY-10997, 6 mg/kg, po daily, MedChemExpress USA), Cabozantinib (HY-13016, 30 mg/kg, po daily, MedChemExpress USA), Regorafenib (HY-1031, 30 mg/kg, po daily, MedChemExpress USA), RMC-4550 (HY-116009, 30 mg/kg, po daily, MedChemExpress USA), Sitravatinib (HY-16961, 20 mg/kg, po daily, MedChemExpress USA), Entinostat (HY-12163, 20 mg/kg, po q2d, MedChemExpress USA), Vorinostat (HY-10221, 150 mg/kg, po daily, MedChemExpress USA), Chidamide-k30 or Chidamide-HCl salt (50 mg/kg, po daily, produced from GNTbm, Taipei, Taiwan), Celecoxib (50 mg/kg, po daily, capsule/Celebrex®, Pfizer Pharmaceuticals LLC) were given for 16 days. Axitinib, Lenvatinib, Olaparib, Ibrutinib, Cabozantinib, Regorafenib, Entinostat, Vorinostat, RMC-4550, Sitravatinib and Celecoxib were dissolved in DMSO and diluted in PBS before administration. Chidamide-k30 and Chidamide-HCl salt were dissolved in water. Animals were euthanized when tumors reached more than 3000 mm^3 in volume. The anti-cancer activity was measured from the start of the treatment until the tumor volume reached 3,000 mm^3. Tumor volume was calculated as length×width^2×0.5. In this study, we defined Complete Response (CR, <0.5 time tumor growth in the tumor bearing mice at three days after the end of treatment); Partial Response (PR, tumor size ≥0.5 time tumor growth, but <1 times tumor growth in the tumor bearing mice at three days after the end of treatment); Stable Disease (SD, tumor size ≥1 time tumor growth, but <5 times tumor growth in the tumor bearing mice at three days after the end of treatment); Progressive Disease (PD, tumor size ≥5 times tumor growth in tumor bearing mice at three days after the end of treatment) for the evaluation of treatment efficacy. The recurrence was defined as when having tumor growth at least 5 fold in mice with CR or PR response after first tumor assessment.
Survival Rate in Animal Models. After tumor assessment the tumor volume of the mice was measured once every three or four days (twice/week). The tumor-bearing mice were regarded as dead when the tumor volume reached 3,000 mm^3. All treatment groups were recorded and analyzed.

[2] = test system: CT26 cells; assay: Tumor rechallenge with CT26 cells in mice with PR/CR response (immunity); format: in vivo, Balb/c mice; settings: for Immunity (rechallenge): mice resistant to CT26 re-challenge
Description: Tumor Rechallenges in Animal Models. All mice with PR/CR response after treatment were rechallenged with CT26 cells on the contralateral side (please see FIG. 6(F)). The rechallenge with CT26 was performed on day 34±2, which was 7 days […] after first tumor assessment (day 27±2), with injection of 5×10^6 CT26 cells per mouse. After rechallenge with CT26 cells, tumors were allowed to grow for another 7 days (day 41±2) to determine the baseline as 1 fold. After further 10 days (day 51±2), the tumor growth was evaluated for the rechallenge. If two of the following criteria are met, the response will be considered as rechallenge-induced recurrence/relapse: first, the tumor size over 2 folds when compared to that of baseline on day 41±2; second, the tumor volume on day 51±2 was over 300 mm^3. Relapse happens when immunity is not sufficiently activated. If the tumor growth is inhibited, it means the immunity is activated.
We were interested in researching more powerful regimens to regulate the TME for boosting the immune response rate. First, we were to evaluate the Lenvatinib and Lenvatinib combined with anti-PD-1 Ab in CT26-bearing mice model. […] CT26 tumor-bearing mice were euthanized when tumor volume reached 3000 mm^3 after tumor implantation. […] Next, we were interested to evaluate immunity stimulated by different treatments in a rechallenge experiment as outlined in FIG. 6(F). The mice with CR or PR went into a wash-out stage of 7 days (until day 34±2) without any further treatment. Then rechallenge was performed with the same kind of cancer cells (CT26; 5×10^6) inoculated on the opposite flank for about another 7 days (day 41±2) and then the tumor volume would be determined as baseline (1 fold). The rechallenge tumor was allowed to grow for 10 days, and then assessed to evaluate the tumor growth (day 51±2). The immunity was defined as negative, when it met two conditions: the tumor volume was over 300 mm^3, or the tumor size was over 2 fold when compared to baseline. […] If the immune memory was not induced or not fully activated, resulting in the growth of tumors inoculated during the rechallenge (tumor recurrence), then the immunity would be defined as negative. […] The rechallenge experiment was used to re-confirm whether the regimens have stimulated the immune system's ability to activate immune memory directly or indirectly.

[3] = FIG. 9, initial tumor volume 251 mm^3

`CNC(=O)c1cc(Oc2ccc(NC(=O)Nc3ccc(Cl)c(C(F)(F)F)c3)c(F)c2)ccn1` [Regorafenib] was tested, and the “Survival Rate (%)” value ([1]; FIG. 9) was 13%, the “ORR (%)” value [1, 3] was 25% and the “Relapse (recurrence)” value ([1]; FIG. 9) was 50%. The CR ([1]; FIG. 9) was 2, the PD ([1]; FIG. 9) was 2 and the PR ([1]; FIG. 9) was 0. For the same compound, the “Immunity (rechallenge)” value ([2]; FIG. 9) was 50%.
With `COc1cc2nccc(Oc3ccc(NC(=O)NC4CC4)c(Cl)c3)c2cc1C(N)=O` [Lenvatinib] the “Survival Rate (%)” value ([1]; FIG. 6) was 10%, the “ORR (%)” value ([1]; FIG. 6, initial tumor volume 190 mm^3) was 30% and the “Relapse (recurrence)” value ([1]; FIG. 6) was 67%. The “Survival Rate (%)” value ([1]; FIG. 9) was 0%, the “ORR (%)” value [1, 3] was 12.5% and 13% and the “Relapse (recurrence)” value ([1]; FIG. 9) was 100%. The body weight ([1]; mouse, in vivo) was “mildly reduced”, the CR ([1]; FIG. 6) was 1 and the PD ([1]; FIG. 6) was 2. For the same compound, the PR ([1]; FIG. 6) was 2, the CR ([1]; FIG. 9) was 0 and the PD ([1]; FIG. 9) was 2. The PR ([1]; FIG. 9) was 1, the “tumor recurrence after the rechallenge” value ([2]; FIG. 6(G), mice that achieved CR/PR) was 33% and the “Immunity (rechallenge)” value ([2]; FIG. 6, overall immune memory) was 67%.
In the case of `COc1cc2nccc(Oc3ccc(NC(=O)C4(C(=O)Nc5ccc(F)cc5)CC4)cc3)c2cc1OC` [Cabozantinib], the “Survival Rate (%)” value ([1]; FIG. 9) is reported as 14%, the “ORR (%)” value [1, 3] is reported as 43% and the “Relapse (recurrence)” value ([1]; FIG. 9) is reported as 67%. For the same compound, the CR ([1]; FIG. 9) was 3, the PD ([1]; FIG. 9) was 2 and the PR ([1]; FIG. 9) was 0. The “Immunity (rechallenge)” value ([2]; FIG. 9) was 100%.
In the case of `CNC(=O)c1ccccc1Sc1ccc2c(/C=C/c3ccccn3)n[nH]c2c1` [Axitinib], the “Survival Rate (%)” value ([1]; FIG. 9) is reported as 38%, the “ORR (%)” value [1, 3] is reported as 37.5% and 38% and the “Relapse (recurrence)” value ([1]; FIG. 9) is reported as 0%. For the same compound, the CR ([1]; FIG. 9) was 3, the PD ([1]; FIG. 9) was 4 and the PR ([1]; FIG. 9) was 0.

— US20220251218A1, “PHARMACEUTICAL COMBINATION AND METHOD FOR OVERCOMING IMMUNE SUPPRESSION OR STIMULATING IMMUNE RESPONSE AGAINST CANCER” (GNT BIOTECH & MEDICALS CORPORATION, priority 2021, published 2022)
